The target of one experiment is HDAC-3 (Homo sapiens, UniProt O15379). Nature of the experiment: HDAC-3 inhibitory activity assay (fluorophore/quencher peptide substrate). Format: biochemical. To be noted: enzyme/compound pre-incubated 2 hours at room temperature; reaction about 45 minutes. Here is the method: (§1) HDAC inhibitory activity of the compound of Example 1 was measured by an assay in which HDAC-1 or -3 were used as a target molecule. The test compound was suspended in and titrated in DMSO. It was then spotted into a 384-well test plate. The enzyme, HDAC-1 or -3, was diluted in assay buffer containing 25 mM Tris-HCl (pH 8.0), 137 mM NaCl, 2.7 mM KCl, and 0.01% Tween-20 and added to the pre-spotted compound. The enzyme/compound mix was incubated at room temperature for 2 hours. The peptide substrate containing a fluorophore/quencher pair was diluted in the same assay buffer and added to the compound/enzyme mix initiating the reaction. The reaction incubated at room temperature for about 45 minutes. A concentrated developer solution was diluted in the assay buffer, and added to the reaction. The reaction was incubated at room temperature for about 15 minutes and relative fluorescence was read on an instrument reader.

Another experiment concerns the target HDAC-1 (Homo sapiens, UniProt Q13547). As to the kind of experiment: HDAC-1 inhibitory activity assay (fluorophore/quencher peptide substrate). The class given is biochemical. Conditions: enzyme/compound pre-incubated 2 hours at room temperature; reaction about 45 minutes. Here is the method:
as §1

What is called IC50 is the midpoint of a concentration-inhibition curve.

HDAC-1, sequence (Q13547 whole entry, species assumed): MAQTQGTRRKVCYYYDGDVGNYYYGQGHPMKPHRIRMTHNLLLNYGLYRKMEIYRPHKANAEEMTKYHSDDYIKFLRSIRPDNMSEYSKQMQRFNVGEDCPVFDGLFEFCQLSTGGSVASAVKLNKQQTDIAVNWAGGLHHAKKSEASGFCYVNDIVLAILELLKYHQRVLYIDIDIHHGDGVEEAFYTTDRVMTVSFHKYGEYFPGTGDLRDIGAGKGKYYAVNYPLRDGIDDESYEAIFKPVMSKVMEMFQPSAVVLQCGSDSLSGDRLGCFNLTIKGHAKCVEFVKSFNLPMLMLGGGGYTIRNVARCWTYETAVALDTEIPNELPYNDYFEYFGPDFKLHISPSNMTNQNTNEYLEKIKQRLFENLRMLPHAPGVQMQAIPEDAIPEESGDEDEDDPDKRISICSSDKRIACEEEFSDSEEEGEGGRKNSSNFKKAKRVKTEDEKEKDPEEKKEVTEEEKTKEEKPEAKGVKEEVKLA
HDAC-3, sequence (O15379 whole entry, species assumed): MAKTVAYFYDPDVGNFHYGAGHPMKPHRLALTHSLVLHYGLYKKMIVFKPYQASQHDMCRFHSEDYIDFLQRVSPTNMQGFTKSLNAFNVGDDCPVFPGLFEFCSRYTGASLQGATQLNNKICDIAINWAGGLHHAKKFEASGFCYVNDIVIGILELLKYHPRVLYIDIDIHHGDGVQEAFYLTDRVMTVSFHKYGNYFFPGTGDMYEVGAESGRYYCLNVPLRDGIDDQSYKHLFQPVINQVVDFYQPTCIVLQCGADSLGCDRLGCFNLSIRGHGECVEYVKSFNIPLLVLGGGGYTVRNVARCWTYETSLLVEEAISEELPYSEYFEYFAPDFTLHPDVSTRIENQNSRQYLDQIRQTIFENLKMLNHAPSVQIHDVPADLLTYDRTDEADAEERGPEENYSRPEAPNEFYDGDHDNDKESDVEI
HDAC-3, sequence (Q9Y618 395-489 partner limits assumed, species assumed): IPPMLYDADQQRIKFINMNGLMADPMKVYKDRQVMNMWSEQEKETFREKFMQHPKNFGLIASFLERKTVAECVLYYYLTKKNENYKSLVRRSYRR

Take `CC(C)(C)OC(=O)NC1(C(=O)Nc2ccc(C(=O)Nc3ccccc3N)cc2)CCCCC1` [Example 1, tert-Butyl-1-((4-((2-aminophenyl)carbamoyl)phenyl)carbamoyl)cyclohexyl carbamate]: the figures for the IC50 against HDAC-3 and at HDAC-1 were 0.378 µM and 0.0447 µM, respectively.
The matching figures for `CC(C)(C)OC(=O)NC1(C(=O)Nc2ccc(C(=O)Nc3ccccc3N)cc2)CC1` [Example 2, tert-Butyl-1-((4-((2-aminophenyl)carbamoyl)phenyl)carbamoyl)cyclopropyl carbamate]: 0.378 µM and 0.0628 µM.
For `CC(C)(C)OC(=O)NC1(C(=O)Nc2ccc(C(=O)Nc3ccccc3N)cc2)CCCC1` [Example 3, tert-Butyl-1((4-((2-aminophenyl)carbamoyl)phenyl)carbamoyl)cyclopentylcarbamate] the same measures were 0.482 µM and 0.0609 µM.
For `Nc1ccccc1NC(=O)c1ccc(NC(=O)C2(NC(=O)OCc3ccccc3)CC2)cc1` [Example 4, Benzyl-1-((4-((2-aminophenyl)carbamoyl)phenyl)carbamoyl)cyclopropyl carbamate] the same measures were 0.171 µM and 0.025 µM.
For the compound `Nc1ccc(-c2cccs2)cc1NC(=O)c1ccc(NC(=O)C2(NC(=O)OCc3ccccc3)CC2)cc1` [Example 5, Benzyl-1-((4-((2-amino-5-(thiophen-2-yl)phenyl)carbamoyl)phenyl)carbamoyl)cyclopropyl carbamate], the IC50 against HDAC-3 was greater than 10 µM; at HDAC-1, 0.0034 µM.
For `Nc1ccc(-c2ccc(F)cc2)cc1NC(=O)c1ccc(NC(=O)C2(NC(=O)OCc3ccccc3)CC2)cc1` [Example 6, Benzyl-1-((4-((2-amino-5-(4-fluorophenyl)phenyl)carbamoyl)phenyl)carbamoyl)cyclopropyl carbamate] the same measures were greater than 10 µM and 0.0074 µM.
Turning to `Nc1ccc(-c2ccc(Cl)s2)cc1NC(=O)c1ccc(NC(=O)C2(NC(=O)OCc3ccccc3)CC2)cc1` [Example 7, Benzyl-1-((4-((2-amino-5-(5-chlorothiophen-2-yl)phenyl)carbamoyl)phenyl)carbamoyl)cyclopropylcarbamate], the IC50 against HDAC-3 is greater than 10 µM; on HDAC-1 it was 0.0267 µM.
The matching figures for `Nc1ccc(-c2cccs2)cc1NC(=O)c1ccc(NC(=O)C2(NC(=O)OCc3ccccc3)CC2)c(F)c1` [Example 8, Benzyl-1-((4-((2-amino-5-(thiophen-2-yl)phenyl)carbamoyl)-2-fluorophenyl)carbamoyl)cyclopropylcarbamate]: greater than 10 µM and 0.0056 µM.
In the case of `CN(C(=O)C1(NC(=O)OCc2ccccc2)CC1)c1ccc(C(=O)Nc2cc(-c3ccc(F)cc3)ccc2N)cc1` [Example 9, Benzyl-1-((4-((2-amino-5-(4-Fluorophenyl)phenyl)carbamoyl)phenyl)(methyl)carbamoyl)cyclopropylcarbamate], the IC50 on HDAC-3 was determined as 7.51 µM; against HDAC-1, 0.0082 µM.
The matching figures for `Nc1ccc(-c2ccc(F)cc2)cc1NC(=O)c1ccc(NC(=O)C2(N)CC2)cc1` [Example 10, N-(4-Amino-4′-fluorobiphenyl-3-yl)-4-(1-aminocyclopropanecarboxamido)benzamide]: greater than 10 µM and 0.0052 µM.
With `CC(C)(C)NC(=O)NC1(C(=O)Nc2ccc(C(=O)Nc3cc(-c4ccc(F)cc4)ccc3N)cc2)CC1` [Example 11, N-(4-amino-4′-fluorobiphenyl-3-yl)-4-(1-(3-tert-butylureido)cyclopropanecarboxamido)benzamide], the IC50 against HDAC-3 was greater than 10 µM; against HDAC-1, 0.009 µM.

The values above are taken from patent publication US8283357B2, “Cycloalkylcarbamate benzamide aniline HDAC inhibitor compounds” (Gilead Sciences, Inc., priority 2009, dated 2012).
